The subject of series [1] is anaerobes, in particular Gram-positive anaerobes. The conditions noted are these: cited from earlier work.
For series [2] the following is noted: in vivo; cited from earlier work.
The nature of series [3]: First-in-Man study: iv. bolus or 20 min infusion of Compound 1. As to conditions: for AUC / Cmax: male, human, plasma, mean. The series is classed as in vivo, humans. The protocol:
Volunteers were administered doses of up to 3.0 mg/kg body weight (BW) of Compound 1 given as iv. bolus injection of 2 min duration. Additionally, doses of 1.5 and 3.0 mg/kg BW of Compound 1 were administered as a short-term infusion of 20 min duration, resulting in infusion rates of 4.5 and 9.0 mg/(kg BW×h), respectively.

A short description of series [4]: Solubility in aqueous media. It counts as physicochemical.
The subject of series [5] is Enterococcus faecalis ATCC 29212. As to the kind of experiment: MIC testing according to CLSI guidelines. It counts as cell-based. The conditions noted are these: ATCC29212. The source says: (§1) MIC testing was done according to CLSI (formerly NCCLS) guidelines: Performance Standards for Antimicrobial Susceptibility Testing 11th Informational Supplement, Vol. 21 No 1, M100-S11, January 2001. NCCLS. Revised edition: 17th Informational Supplement, Vol. 27 No 1, […], January 2007.

Series [6] deals with Enterococcus faecalis ATCC 51299. As to the kind of experiment: MIC testing according to CLSI guidelines. The series is classed as cell-based. The conditions noted are these: ATCC51299.
Text: as §1

Series [7] relates to Staphylococcus aureus ATCC 29213. Briefly: MIC testing according to CLSI guidelines. The series is classed as cell-based. As to conditions: ATCC29213.
Text: as §1

The test system of series [8] is Staphylococcus aureus ATCC 33593. Briefly: MIC testing according to CLSI guidelines. The series is classed as cell-based. The conditions noted are these: ATCC33593.
Text: as §1

Series [9] has as its system Staphylococcus aureus ATCC 43300. As to the kind of experiment: MIC testing according to CLSI guidelines. The series is classed as cell-based. As to conditions: ATCC43300.
Text: as §1

The test system of series [10] is Staphylococcus aureus NRS 120. As to the kind of experiment: MIC testing according to CLSI guidelines. The series is classed as cell-based. As to conditions: NRS120.
Text: as §1

Series [11] concerns Staphylococcus aureus Visa Mu 50. As to the kind of experiment: MIC testing according to CLSI guidelines. The series is classed as cell-based.
Text: as §1

In series [12] the test system is Streptococcus pneumoniae ATCC 33400. As to the kind of experiment: MIC testing according to CLSI guidelines. The series is classed as cell-based. The conditions noted are these: ATCC33400.
Text: as §1

A further series deals with Clostridium spp. Briefly: Fecal microflora viable counts after i.v. infusions in healthy volunteers. The series is classed as in vivo, human. The protocol: (§2) Healthy human volunteers received i.v. infusions of Compound 1 at a dose of 6 mg/kg body weight over 12 hours for 5 consecutive days. […] Viable counts of lactobacilli were reduced from predose to Day 5 by 4.0 log 10 CFU/g. […] Likewise, enterococci were reduced from predose to Day 5 by 3.8 log 10 CFU/g on average.

A further series deals with bifidobacteria. Described as above. As to conditions: Compound 1 i.v. 6 mg/kg over 12 hours for 5 days. It counts as in vivo, human. The protocol: as §2
For a further series, the system named is enterococci. Described as above. It counts as in vivo, human. The conditions noted are these: Compound 1 i.v. 6 mg/kg over 12 hours for 5 days. The protocol: as §2
The next series has as its system lactobacilli. Described as above. The series is classed as in vivo, human. The conditions noted are these: Compound 1 i.v. 6 mg/kg over 12 hours for 5 days. The protocol:
as §2

The next series concerns Gram-negative species. As to the kind of experiment: Fecal microflora after i.v. infusions in healthy volunteers. It counts as in vivo, human. As to conditions: Compound 1 i.v. 6 mg/kg over 12 hours for 5 days. The protocol: as §2
The subject of a further series is Clostridium difficile. As to the kind of experiment: Antimicrobial susceptibility of 114 C. difficile strains by agar dilution method. The series is classed as cell-based. As to conditions: for MIC50: Clostridioides difficile, read-out: MIC50. The protocol: One hundred fourteen Clostridium difficile strains were collected from 67 patients and analyzed for the presence of C. difficile toxin B by the cell cytotoxicity neutralization assay, genes for toxin A, toxin B, binary toxin and TcdC deletion by PCR. All strains were also PCR-ribotyped. The MICs of the isolates were determined against Compound 2 by the agar dilution method. All isolates were positive for toxin B. One hundred thirteen isolates were positive for toxin A and B genes. In addition, 13 isolates were positive for the binary toxin genes. Thirty-two different ribotypes were identified. No strain of ribotype 027 was found.
One hundred fourteen C. difficile strains were selected from patients (26 males and 41 females) with primary and/or recurrent CDI. The mean age of the patients was 74 years (age range 19-97 years). The strains (67 primary and 47 recurrent isolates) were identified by characteristic colony morphology, typical smell and Gram staining. Gas chromatography was used to detect volatile, short chain fatty acids production by the C. difficile strains for the final identification.
The antimicrobial susceptibility of the C. difficile strains was determined according to CLSI guidelines by the agar dilution method using Bacteroides fragilis ATCC 25285 and C. difficile ATCC 700057 as reference strains [CLSI. Methods for Antimicrobial Susceptibility Testing of Anaerobic Bacteria; Approved Standard-Eighth Edition. 2012].
MIC was defined as the lowest concentration of the drug that inhibited growth completely. MIC50/90 corresponds to the concentrations that inhibit the growth of 50% and 90%, of the strains tested, respectively.
PCR ribotype profiles from clinical isolates were compared to those profiles which define the database by maximum matching with Pearson correlation. IBM SPSS Statistics 22 (Armonk, N.Y., USA) software was used to calculate the percentiles 50 and 90 of the MIC results. Descriptive statistics were used to summarize the results.
(In general: In agar dilution the substance is mixed into plates at graded concentrations.)

Series [13] has as its system Clostridium difficile infections (CDI). The conditions noted are these: oral administration; cited from earlier work.
Series [14] has as its system C difficile. As to conditions: cited from earlier work.
Series [15] has as its system C difficile. As to conditions: cited from earlier work. The source holds these as a separate data set.
The conditions of series [16]: cited from earlier work.
The mark [17] stands for this setting: intravenous, Drug after 3.0 mg/kg BW Compound 1, 20 min infusion, 9.0 mg/(kg BW·h).
Where [18] appears, read: Drug after 3.0 mg/kg BW Compound 1 iv. bolus.
Setting [19] is: 114 C. difficile strains, agar dilution.

In brackets after ≈: the same amount, converted by molar mass. Counter-ions that a name gives are not always drawn. Like-named read-outs stand apart in the source and are kept apart here.

With `O=C(O)c1cn(C2CC2)c2cc(N3CCNCC3)c(F)cc2c1=O` [Ciprofloxacin], the “Activity in vitro against anaerobes” value in [1] is given as “neither active in vitro”. For the same compound, in series [2], the Fecal concentrations entry is reported as “high”.
`CC(=O)NC[C@H]1CN(c2ccc(OCC3(OP(=O)(O)O)CCN(c4cc5c(cc4F)c(=O)c(C(=O)O)cn5C4CC4)CC3)c(F)c2)C(=O)O1` [Compound 1, sodium salt of 7-(4-{4-[(5S)-5-(Acetylamino-methyl)-2-oxo-oxazolidin-3-yl]-2-fluoro-phenoxymethyl}-4-phosphonooxy-piperidin-1-yl)-1-cyclopropyl-6-fluoro-4-oxo-1,4-dihydro-quinoline-3-carboxylic acid]: in [3] (3.0 mg/kg BW), the “AUC of the Prodrug, 20 min infusion compared to bolus administration” value is “lower AUC”. Besides, the “Conversion of the Prodrug to the Drug” value in series [3] (humans, all doses applied) is on record as “very rapid conversion”. Also, in series [4], the “Solubility in aqueous media” value was “very good solubility”.
Broadly, the MIC is the lowest concentration found to suppress growth. A high value points to weaker potency. In general, AUC refers to the area under the concentration-time curve, a measure of exposure. A high value points to more exposure. What is called Cmax is the maximum level reached in the sampled fluid or tissue. In general, MIC50 refers to an inhibitory concentration at the 50% level, which refers to growth in some studies and to a panel of isolates in others. Regarding `CC(=O)NC[C@H]1CN(c2ccc(OCC3(O)CCN(c4cc5c(cc4F)c(=O)c(C(=O)O)cn5C4CC4)CC3)c(F)c2)C(=O)O1` [Compound 2, 7-(4-{4-[(5S)-5-(Acetylamino-methyl)-2-oxo-oxazolidin-3-yl]-2-fluoro-phenoxymethyl}-4-hydroxy-piperidin-1-yl)-1-cyclopropyl-6-fluoro-4-oxo-1,4-dihydro-quinoline-3-carboxylic acid], the MIC stood at 0.25 µg/mL (≈ 0.399 µM) in series [5]; 0.25 µg/mL (≈ 0.399 µM) in series [6]; 0.5 µg/mL (≈ 0.798 µM) in series [7]; 0.25 µg/mL (≈ 0.399 µM) in [8]; 0.5 µg/mL (≈ 0.798 µM) in [9]; 2 µg/mL (≈ 3.19 µM) in series [10]. For the same compound, the MIC came out at 0.5 µg/mL (≈ 0.798 µM) in series [11] and 0.03 µg/mL (≈ 0.0479 µM) in series [12]. Also, the values for the AUC in series [3] (setting [17]) and in [3] (setting [18]) were 3230 ng·h/mL and 2170 ng·h/mL, respectively. Also, the Cmax in series [3] (setting [17]) is 3180 ng/mL; in series [3] (setting [18]), 2450 ng/mL. Also, the “Reduction of viable counts of Clostridium spp. from predose to Day 5” value in the series with Clostridium spp. (Compound 1 i.v. 6 mg/kg over 12 hours for 5 days) was 3.0 log 10 CFU/g. Moreover, the “Viable counts of Clostridium spp. until Day 3 postdose” value in the series on Clostridium spp. (all except one of the volunteers) is “reduced below the limit of detection”. In addition, the “Reduction of viable counts of bifidobacteria from predose to Day 5” value with bifidobacteria came to 7.9 log 10 CFU/g. Further, the “Reduction of enterococci from predose to Day 5, on average” value with enterococci is given as 3.8 log 10 CFU/g. Also, in the series with lactobacilli, the “Reduction of viable counts of lactobacilli from predose to Day 5” value amounted to 4.0 log 10 CFU/g. The “Effect of exposure of the fecal flora on Gram-negative species” value in the series with Gram-negative species is “did not affect”. Moreover, the MIC range is 0.008-0.5 mg/1 against Clostridium difficile (114 C. difficile isolates, agar dilution) and 0.008 to 0.5 mg/L in the series with Clostridium difficile (setting [19]). In the series with Clostridium difficile (setting [19]), this compound came in with an MIC90 of 0.064 mg/1. Further, the MIC50 with Clostridium difficile worked out at 0.064 µg/mL (≈ 0.102 µM); in the series on Clostridium difficile (setting [19]) it was 0.032 µg/mL (≈ 0.0511 µM). Moreover, the “Susceptibility of the C. difficile isolates” value with Clostridium difficile (all 114 isolates) is given as “sensitive”.
With `CCc1c(Cl)c(O)c(Cl)c(O)c1C(=O)O[C@H]1[C@H](O)[C@H](OC)[C@H](OC/C2=C\C=C\C[C@H](O)/C(C)=C/[C@H](CC)[C@@H](O[C@@H]3OC(C)(C)[C@@H](OC(=O)C(C)C)[C@H](O)[C@@H]3O)/C(C)=C/C(C)=C/C[C@@H]([C@@H](C)O)OC2=O)O[C@@H]1C` [fidaxomicin], the “Frequency of recurrence of CDI” value in series [13] is on record as “approximately 13%”.
`CC(=O)NC[C@H]1CN(c2ccc(N3CCOCC3)c(F)c2)C(=O)O1` [linezolid]: the “Activity in vitro against C difficile” value with C difficile [14] was “active”. Besides, the “Activity in an in vitro human gut model” value with C difficile [15] is “inactive”. For the same compound, in series [2], the Fecal concentrations result is “negligibly low” and the “Fraction of the dose excreted via the feces” value is 0.2 % of the dose.
Take `Cc1ncc([N+](=O)[O-])n1CCO` [metronidazole]: in series [16], the “Toxicity associated with long term treatment” value is on record as “neurotoxicity”.
As to `CN[C@H](CC(C)C)C(=O)N[C@H]1C(=O)N[C@@H](CC(N)=O)C(=O)N[C@H]2C(=O)N[C@H]3C(=O)N[C@H](C(=O)N[C@H](C(=O)O)c4cc(O)cc(O)c4-c4cc3ccc4O)[C@H](O)c3ccc(c(Cl)c3)Oc3cc2cc(c3O[C@@H]2O[C@H](CO)[C@@H](O)[C@H](O)[C@H]2O[C@H]2C[C@](C)(N)[C@H](O)[C@H](C)O2)Oc2ccc(cc2Cl)[C@H]1O` [vancomycin], the “Toxicity associated with long term treatment” value in [16] is reported as “nephrotoxicity”.

Values taken from patent US10723746B2, “Oxazolidinone-quinolone hybrid antibacterials for the parenteral treatment or prophylaxis of bacterial diseases” (MORPHOCHEM AKTIENGESELLSCHAFT FÜR KOMBINATORISCHE CHEMIE, priority 2013, dated 2020).
